Series [1] in a line: MTT cell viability assay, Huh7 cells. It is filed as cell-based, human. The following applies: human, Huh7 cells; Huh7, MTT, 10 µM, 24 hrs, without TRAIL; Supplementary Table 3; read-out: Cell viability assay Compound only. As to the method: (§1) Cell viability was assessed using a 3-(4,5-dimethylthiazol-2-yl)-2,5-diphenyltetrazolium bromide (MTT, Sigma-Aldrich, St. Louis, USA) assay. The cells were seeded at a density of 1 × 10^4 cells per well and treated with the lead compounds and/or TRAIL. After 24 or 48 h, MTT (2 mg/ml) was added to each well, and the absorbance was measured using a microplate reader (Bio-Rad, Hercules, USA) at 570 nm. The cell viability was calculated as the percentage of viable cells in the drug-treated group versus the untreated control using the following equation: cell viability (%) = [OD (drug)-OD (blank)]/[OD (control)-OD (blank)] × 100.

The next series relates to Huh7 cells. Description: MTT cell viability assay, Huh7 cells. As to conditions: for reduction of cell viability of Huh7 cells by co-treatment with TRAIL, compared to TRAIL alone: 10 μM TRT-0029 or 20 μM TRT-0173 plus TRAIL; for reduction of cell viability of Huh7 cells by co-treatment with TRAIL, compared to TRAIL alone / effective working concentration: 24 h; for viability at 10 µM: Homo sapiens, Huh-7, Huh7, MTT, 24 hrs, with TRAIL, Supplementary Table 3, read-out: Cell viability assay Compound + TRAIL; for effective working concentration: Huh7 cells, various doses with and without TRAIL (100 ng/ml). It is filed as cell-based, human. How it is done:
as §1
A general note: Formazan colour is commonly taken as a measure of viable cells.

The test system of another series is HepG2 cells. In words: MTT cell viability assay, HepG2 cells. It is filed as cell-based, human. The following applies: 10 µM TRT-0029 or 20 µM TRT-0173 plus TRAIL 100 ng/ml, 24 h. As to the method:
as §1

In the next series the test system is caspase-3 and PARP. Description: Western blot of cleaved caspase-3 and PARP in Huh7 cells. As to conditions: lead compounds co-treated with TRAIL 100 ng/ml, TRAIL tested alone. It is filed as cell-based, human. As to the method: The cells were lysed in lysis buffer (50 mM Tris-HCl, pH 7.4, 150 mM NaCl, 1% Triton™ X-100, 0.1% SDS, 1 mM EDTA, 1 mM Na3VO4, 1 mM NaF, and protease inhibitor cocktail) and clarified by centrifugation at 14,000×g for 20 min at 4°C. The protein samples were then subjected to Western blotting with the indicated antibodies.
A general note: In western blotting, separated proteins are transferred to a membrane and probed.

The next series deals with caspase-3. Description: Caspase 3 activity assay in Huh7 cells. It is filed as cell-based, human. The following applies: for Caspase 3 activity Compound + TRAIL/Compound: each compound at its working concentration and time of the table. As to the method:
The caspase 3 activity was measured using a caspase-3 luminescent assay kit (Promega, Madison, WI, USA), according to the manufacturer's instructions, and a luminescence plate reader (Molecular Devices Co., Sunnyvale, USA).

Another series deals with T1, MKK7-TIPRL interaction (Homo sapiens, UniProt O14733+O75663).
T1 sequence (O14733 1-419): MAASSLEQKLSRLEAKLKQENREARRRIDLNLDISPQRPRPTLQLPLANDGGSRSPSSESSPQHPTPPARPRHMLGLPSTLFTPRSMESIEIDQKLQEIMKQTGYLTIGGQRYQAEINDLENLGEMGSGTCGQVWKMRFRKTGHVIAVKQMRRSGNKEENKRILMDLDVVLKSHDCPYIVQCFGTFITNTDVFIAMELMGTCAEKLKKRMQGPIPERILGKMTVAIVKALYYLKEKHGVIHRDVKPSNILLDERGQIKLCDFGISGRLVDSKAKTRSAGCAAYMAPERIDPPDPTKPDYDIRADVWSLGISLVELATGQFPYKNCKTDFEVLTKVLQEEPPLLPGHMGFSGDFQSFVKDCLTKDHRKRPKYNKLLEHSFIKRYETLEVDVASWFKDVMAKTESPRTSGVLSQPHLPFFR
T1 sequence (O75663 1-272): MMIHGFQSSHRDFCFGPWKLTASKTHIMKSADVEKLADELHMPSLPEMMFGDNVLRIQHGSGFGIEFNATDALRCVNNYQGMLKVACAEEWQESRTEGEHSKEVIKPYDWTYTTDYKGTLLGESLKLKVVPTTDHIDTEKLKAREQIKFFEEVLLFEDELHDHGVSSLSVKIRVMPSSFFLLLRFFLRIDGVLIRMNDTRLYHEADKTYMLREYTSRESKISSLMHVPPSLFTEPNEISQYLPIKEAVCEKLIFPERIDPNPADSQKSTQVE
In words: GST pull-down assay of MKK7-TIPRL in 293T cells. It counts as cell-based. The following applies: 10 μM TRT-0029 or 20 μM TRT-0173, 24 h. As to the method: The full-length cDNAs of human TIPRL and MKK7 were subcloned into the pCGN vector (W. Herr, Cold Spring Harbor Laboratory) and the pEBG vector containing a GST tag to construct the HA-tagged and the GST-tagged plasmids, respectively. 293T cells were transfected with expression vector constructs using the TurboFect Transfection Reagent (Thermo Fisher Scientific, Lafayette, USA) and then were lysed in RIPA buffer (50 mM Tris-HCl, 150 mM NaCl, 1% Triton™ X-100, 0.1% SDS, 1 mM EDTA, 1 mM Na3VO4, and 1 mM NaF) containing complete protease inhibitor cocktail (Roche Applied Science, Indianapolis, USA). Whole-cell extracts were incubated with Glutathione Sepharose 4B (GE Healthcare, Uppsala, Sweden), and the eluted GST-tagged proteins were subjected to Western blotting using the indicated antibodies.

In a further series the test system is Huh7 tumor xenografts. In words: In vivo Huh7 xenograft assay. The arrangement: species or system BALB/c nude mice. As to conditions: for tumor volume / tumor growth at 11 days, compound + TRAIL compared with compound alone: compound 30 mg/kg i.v. plus TRAIL 2.5 mg/kg i.p. daily; for reduction of average tumor mass, lead compound + TRAIL: compound 30 mg/kg i.v. plus TRAIL 2.5 mg/kg i.p. daily for 11 days, versus vehicle control. The source says: Five-week-old female BALB/c nude mice were purchased from SLC Japan and were maintained in accordance with the guidelines of the Institutional Review Committee for Animal Care and Use of the Korea Research Institute of Bioscience and Biotechnology. Protocol approval was obtained from the same committee.
Huh7 cells were harvested and subcutaneously injected (5 × 10^6 cells/mouse) into nude mice (N = 6/group for TRT-0173 or TRT-0029 experiments). When the tumor volume reached ~100 mm^3, the mice were divided into four groups and treated with vehicle, TRAIL (2.5 mg/kg, intraperitoneal), lead compound (TRT-0029 or TRT-0173, 30 mg/kg, intravenously), or lead compound (30 mg/kg, intravenously) combined with TRAIL (2.5 mg/kg, intraperitoneal) daily for 11 days (11 treatments in total). The tumor volumes were measured every 2 days for 11 days after treatment, and tumor volume was calculated according to the following equation: V (mm^3) = width^2 (mm^2) × length (mm)/2. Body weight and tumor mass were measured 11 days after treatment.

The next series is described as follows: Pharmacokinetics in rats. It is filed as in vivo, Sprague-Dawley rats. As to conditions: rat; for AUC: male, Sprague-Dawley, plasma, after 24 h; for oral availability: 5 mg/kg i.v. and p.o. How it is done: Male Sprague-Dawley rats anesthetized with ketamine were cannulated with polyethylene tubing in the femoral vein. A solution of lead compound (TRT-0029 or TRT-0173) was prepared by dissolving the compounds in a mixture of dimethyl sulfoxide (DMSO)/ polyethylene glycol 400 (PEG 400)/ distilled water (0.5: 4: 5.5), and was administered to rats by a bolus injection in the femoral vein. Blood samples were collected via the femoral vein 0, 2, 10, and 30 min, as well as 1, 2, 4, 6, 8, and 24 h after intravenous administration. For oral administration, blood was collected 0.25, 0.5, 1, 2, 4, 6, 8, and 24 h after treatment. The plasma fractions were prepared by centrifugation and were stored at −70°C before the liquid chromatography-tandem mass spectrometry (LC/MS/MS) analysis. The concentrations of target compound in the plasma were measured using LC-MS/MS (4000 QTRAP, AB SCIEX, Foster City, CA) in multiple reaction monitoring (MRM) mode. The PK parameters were determined with non-compartmental methods using Phoenix WinNolin (Pharsight, Mountain View, CA). The area under the plasma concentration-time curve (AUC) was calculated using the trapezoidal rule extrapolated to infinity. The terminal elimination half-life (t1/2), and the systemic clearance (CL) were obtained. The peak plasma concentration (Cmax) after oral administration was obtained by visual inspection of the plasma concentration-time plot of each rat.

The mark [2] stands for this setting: iv, i.v. 5 mg/kg, read-out: AUC (i.v.).
Where [3] appears, read: po, p.o. 5 mg/kg, read-out: AUC (p.o.).

Like-named read-outs stand apart in the source and are kept apart here.

One may read the viability as a read-out of living cells in per cent, often relative to untreated cells. Broadly, the AUC is concentration integrated over time.

On to `CC(=O)c1cc(-n2ncc3cc(NS(=O)(=O)c4ccccc4)ccc32)c(Cl)cc1Cl` [TRT-0029], for which, in series [1], the viability at 24 h, 10 µM amounted to 69%. Also, in the series with Huh7 cells, the “reduction of cell viability of Huh7 cells by co-treatment with TRAIL, compared to TRAIL alone” value is reported as about 90%; the viability at 10 µM was 11%; the effective working concentration stood at 10 µM. The “decrease of HepG2 viability by co-treatment with TRAIL” value in the series with HepG2 cells is given as 36%. The “apoptosis signals (cleaved caspase-3, PARP) by Western blotting” value with caspase-3 and PARP was “effectively activated apoptosis signals”. Besides, the “activity of caspase-3, co-treatment with TRAIL compared to compound alone or TRAIL alone” value in the series with caspase-3 (Huh7, 24 h) is on record as “significantly increased”. In addition, the “Caspase 3 activity Compound + TRAIL/Compound” value in the series on caspase-3 was determined as 2.20 ratio. In addition, the “interaction between MKK7 and TIPRL in GST pull-down assay, compared with untreated cells” value at MKK7-TIPRL interaction is reported as “significantly decreased the interaction”. For the same compound, in the series with Huh7 tumor xenografts, the “tumor volume / tumor growth at 11 days, compound + TRAIL compared with compound alone” value was “significantly reduced” and the “reduction of average tumor mass, lead compound + TRAIL” value turned out to be 64.5%. In addition, the AUC in “Pharmacokinetics in rats” (setting [2]) stood at 10000 ng·h/mL. In the series “Pharmacokinetics in rats” (setting [3]), the exposure (AUC) was found to be 1220 ng·h/mL. For the same compound, the oral availability in the series “Pharmacokinetics in rats” came to 11%.
With `COc1ccc(S(=O)(=O)Nc2ccc3c(cnn3-c3ccc(F)cc3)c2)cc1` [TRT-0173], the viability at 24 h, 10 µM in series [1] was found to be 53%. Further, in the series with Huh7 cells, the “reduction of cell viability of Huh7 cells by co-treatment with TRAIL, compared to TRAIL alone” value was about 90%; the viability at 10 µM came out at 7%; the effective working concentration worked out at 20 µM. Moreover, the “decrease of HepG2 viability by co-treatment with TRAIL” value in the series with HepG2 cells is recorded as 53%. For the same compound, in the series with caspase-3 and PARP, the “apoptosis signals (cleaved caspase-3, PARP) by Western blotting” value is on record as “activated apoptosis signals”. Moreover, in the series with caspase-3, the “Caspase 3 activity Compound + TRAIL/Compound” value amounted to 2.10 ratio. In addition, the “interaction between MKK7 and TIPRL in GST pull-down assay, compared with untreated cells” value on MKK7-TIPRL interaction is “significantly decreased the interaction”. In the series with Huh7 tumor xenografts, the “tumor volume / tumor growth at 11 days, compound + TRAIL compared with compound alone” value was “moderately inhibited tumor growth” and the “reduction of average tumor mass, lead compound + TRAIL” value stood at 42.2%. Moreover, the AUC in the series “Pharmacokinetics in rats” (setting [2]) was 4270 ng·h/mL. Further, the area under the curve (AUC) in the series “Pharmacokinetics in rats” (setting [3]) was determined as 1150 ng·h/mL. The compound further gave an oral availability in “Pharmacokinetics in rats” of 26.8%.

Values taken from publication PMC5762535, “Novel indazole-based small compounds enhance TRAIL-induced apoptosis by inhibiting the MKK7-TIPRL interaction in hepatocellular carcinoma” (Oncotarget, 2017).
